We go through 17 compounds from patent US4414388A, “1-Oxo-1H-thiazolo[3,2-a]pyrimidine-2-carboxamides” (Pfizer Inc., priority 1981, dated 1983).

For data set [1], the system named is gastric ulcers. Particulars: animals, including humans; cited from earlier work.
Data set [2] concerns IgG. Put plainly: passive cutaneous anaphylaxis (PCA) test, oral, IgG (hyperimmune antiserum) site. Type of data set: in vivo, rat. Conditions: Table I; for inhibition in vivo at 30 mg/kg: Rattus norvegicus, read-out: Oral Activity (% of Protection) of Amides in the PCA Test, IgG 30 mg./kg. As to the method:
(§1) The antiallergy property of the compounds of this invention is evaluated by the passive cutaneous anaphylaxis (PCA) test (Ovary, J. Immun., 81, 355, 1958). In the PCA test, normal animals are injected intradermally (i.d.) with antibodies contained in serum obtained from actively sensitized animals. The animals are then challenged intravenously with antigen mixed with a dye such as Evans' Blue. The increased capillary permeability caused by the antigen-antibody reaction causes the dye to leak from the site of the antibody injection. The test animals are then asphyxiated and the intensity of the reaction determined by measuring the diameter and intensity of the blue coloration on the inner surface of the animals' skin.
(§2) The PCA test is a measure of the anti-allergic (especially anti-asthmatic) activity of a compound. Compounds which inhibit a positive PCA test induced by the rat immunochemical counterpart of human immunoglobulin E (IgE), or reagin, are considered to have anti-allergic activity (C. Mota, Ann. N.Y. Acad. Sci., 103, 264 1963). (Reagin is primarily immunoglobulin E [IgE] and is the principal immunoglobulin responsible for allergic asthma, anaphylaxis, hay fever, food sensitivities and certain manifestations of drug sensitivities, although recent evidence ascribes to the IgG class of antibodies a significant role in the mediation of allergic diseases). Such compounds when administered to a sensitized subject, human or animal, prior to the time when the subject comes into contact with antigens or substances to which it is allergic, will prevent the allergic reaction which would otherwise occur. They, therefore, provide a method for the prophylactic treatment of allergy or anaphylactic reactions of a reagin mediated nature.
(§3) To put it another way, such compounds block the release of mediators resulting from the antigen-antibody (allergic) reaction as illustrated in the PCA test using rat homocytotropic antibody--a known correlate of human reaginic antibody. Inhibition of reaginic antigen-antibody reactions in rats, the test animal of the PCA test, is regarded as representative of inhibition of human reaginic antigen-antibody reactions which occur during allergic episodes.
(§4) The ability of agents to interfere with PCA reactions is measured in male Charles River Wistar rats, 170-210 g. Reaginic antiserum, rich in IgE antibodies, is prepared according to Petillo et al., Int. Arch. Allergy, 44, 309 (1973). Hyperimmune antiserum rich in IgG antibodies to hen egg albumin is prepared according to Orange et al., J. Exptl. Med., 127, 767 (1968). Forty-eight hours prior to antigen challenge, the reaginic antiserum is injected intradermally (i.d.) into the shaved skin of a normal rat's back; 5 hours before challenge the hyperimmune antisera is similarly injected. At a third site 60 mcg. histamine dihydrochloride and 0.5 mcg. serotonin creatinine sulfate are injected i.d. just prior to antigen challenge as a check for antihistaminic, antiserotonin and unspecific types of blockage; the compounds of the instant invention or saline are then administered i.v. and immediately followed by the challenge of 5 mg. egg albumen and 2.5 mg. Evans' Blue dye in saline. In the case of oral administration Evans' Blue dye and egg albumin are given 5 minutes after administration of the drug. Thirty minutes later the animals are asphyxiated using chloroform and the skin of the back removed and reversed for observation. A score is assigned each injection site equal to the product of the diameter of the site in mm. and a grade of 0.1, 0.5, 1, 2, 3 or 4 proportional to intensity of dye coloration. The scores for a given injection site are summed for each group of five animals and compared to the saline treated controls. The difference is expressed as percent blockage due to the compound employed. […]

For data set [3], the system named is IgE. Put plainly: passive cutaneous anaphylaxis (PCA) test, oral, IgE (reaginic antiserum) site. Type of data set: in vivo, rat. Conditions: Table I; for inhibition in vivo at 30 mg/kg: Rattus norvegicus, read-out: Oral Activity (% of Protection) of Amides in the PCA Test, IgE 30 mg./kg. Here is the method:
as §1, §2, §3, §4

Data set [4] in a line: plasma concentration / oral absorption in dogs. It is filed as in vivo, dog. Particulars: dog; oral dosing of III. As to the method: (§5) This is supported by the observations of plasma concentrations of 3 to 7 μg/ml one hour after oral administration of III, 50 to 300 mg/kg.
Data set [5] in a line: plasma concentration / oral absorption in rats. It is filed as in vivo, rat. Particulars: rat; oral dosing of III. As to the method:
as §5

The test system of data set [6] is allergy and ulcer. Put plainly: antiallergy and antiulcer activity, general statement. Particulars: in vivo. Here is the method: as §1
The antiulcer activity of the compounds of the present invention is evaluated by the so-called cold-restraint stressed rat assay. Alternatively, the antiulcer activity is determined in a newly established ethanol-induced rat ulcer assay described below.

Data set [7] is described as follows: water solubility and hygroscopicity of the sodium salt. Conditions: sodium salt (trihydrate). Type of data set: physicochemical.
Data set [8] has as its system mediators of anaphylaxis. Conditions: cited from earlier work.
Data set [9] relates to dextran induced release of histamine. The data set can be described thus: dextran induced release of histamine into the rat peritoneal cavity. It is filed as in vivo. Particulars: ip. From the text: Compound III inhibits dextran induced release of histamine into the rat peritoneal cavity.

“Also recorded” adds a separate entry of the source. Where a name gives a salt, the structure may show the parent alone.

Take `CN/C(=N/CCSCc1nc[nH]c1C)NC#N` [cimetidine]: in [1], the “effect on gastric ulcers” value was “alleviates ulcers by reducing gastric acid secretion”.

For `O=C(Nc1nnn[nH]1)c1cnc2sc3c(n2c1=O)CCCCCC3` [Amide I, R1R2 = (CH2)6, N-(5-Tetrazolyl)-1-oxo-1H-cyclooctenothiazolo[3,2-a]pyrimidine-2-carboxamide], the “Oral Activity (% of Protection) of Amides in the PCA Test, IgG 10 mg./kg.” value (from here on “Oral Activity (% of Protection) … IgG 10 mg./kg.”) in data set [2] is 57%. In data set [3], the “Oral Activity (% of Protection) of Amides in the PCA Test, IgE 10 mg./kg.” value (shortened to “Oral Activity (% of Protection) … IgE 10 mg./kg.”) is given as 94%.

Turning to `CCC(C)c1csc2ncc(C(=O)Nc3nnn[nH]3)c(=O)n12` (centres unmarked) [N-(5-Tetrazolyl)-1-oxo-1H-7-(2-butyl)thiazolo[3,2-a]pyrimidine-2-carboxamide], the inhibition in vivo at 30 mg/kg in [2] and in data set [3] was 6% throughout.

`CCc1c(C)sc2ncc(C(=O)Nc3nnn[nH]3)c(=O)n12` [Amide I, R1 = CH3, R2 = C2 H5, N-(5-tetrazolyl)-1-oxo-1H-6-methyl-7-ethylthiazolo[3,2-a]pyrimidine-2-carboxamide]: the “Oral Activity (% of Protection) … IgG 10 mg./kg.” value in data set [2] is recorded as 57%. In [3], the “Oral Activity (% of Protection) … IgE 10 mg./kg.” value came out at 75%.

In the case of `CCc1sc2ncc(C(=O)Nc3nnn[nH]3)c(=O)n2c1CC` [Amide I, R1 = C2 H5, R2 = C2 H5, N-(5-tetrazolyl)-1-oxo-1H-6,7-diethylthiazolo[3,2-a]pyrimidine-2-carboxamide], the “Oral Activity (% of Protection) … IgG 10 mg./kg.” value in [2] was found to be 49%. The “Oral Activity (% of Protection) … IgE 10 mg./kg.” value in data set [3] turned out to be 62%.

With `CC1CCc2c(sc3ncc(C(=O)Nc4nnn[nH]4)c(=O)n23)C1` (centres unmarked) [Amide I, R1R2 = CH2 CH(CH3)CH2 CH2, N-(5-tetrazolyl)-1-oxo-1H-7-methylcyclohexenothiazolo[3,2-a]pyrimidine-2-carboxamide], the inhibition in vivo at 30 mg/kg was 33% in [2] and 44% in data set [3].

`CC(C)c1csc2ncc(C(=O)Nc3nnn[nH]3)c(=O)n12` [Amide I, R1 = H, R2 = CH(CH3)2, N-(5-tetrazolyl)-1-oxo-1H-7-isopropylthiazolo[3,2-a]pyrimidine-2-carboxamide]: in data set [2], the “Oral Activity (% of Protection) … IgG 10 mg./kg.” value was 53%. Besides, the “Oral Activity (% of Protection) … IgE 10 mg./kg.” value in [3] worked out at 72%.

With `CCc1csc2ncc(C(=O)Nc3nnn[nH]3)c(=O)n12` [Amide I, R1 = H, R2 = C2 H5, N-(5-tetrazolyl)-1-oxo-1H-7-ethylthiazolo[3,2-a]pyrimidine-2-carboxamide], the “Oral Activity (% of Protection) … IgG 10 mg./kg.” value in [2] is given as 44%. In addition, in data set [3], the “Oral Activity (% of Protection) … IgE 10 mg./kg.” value turned out to be 70%.

In the case of `O=C(Nc1nnn[nH]1)c1cnc2sc3c(n2c1=O)CCC3` [Amide I, R1R2 = (CH2)3, N-(5-tetrazolyl)-1-oxo-1H-cyclopentenothiazolo[3,2-a]pyrimidine-2-carboxamide], the “Oral Activity (% of Protection) of Amides in the PCA Test, IgG 3 mg./kg.” value in data set [2] (3 mg./kg.) is 43%. In addition, the “Oral Activity (% of Protection) of Amides in the PCA Test, IgE 3 mg./kg.” value in [3] (3 mg./kg.) is 46%.

In the case of `O=C(Nc1nnn[nH]1)c1cnc2sc3c(n2c1=O)CCC(c1ccccc1)C3` (centres unmarked) [Amide I, R1R2 = CH2 CH(C5 H6)CH2 CH2, N-(5-tetrazolyl)-1-oxo-1H-7-phenylcyclohexenothiazolo[3,2-a]pyrimidine-2-carboxamide], the inhibition in vivo at 30 mg/kg in data set [2] amounted to 7%; in data set [3] it was 4%.

Consider `O=C(O)c1cnc2sc3c(n2c1=O)CCCC3` [Acid II, R1R2 = (CH2)4, 1-oxo-1H-cyclohexenothiazolo[3,2-a]pyrimidine-2-carboxylic acid], for which the “plasma levels of the carboxylic acid metabolite compared with III, dog” value in data set [4] was “comparable to those of III”. Also, the “plasma levels of the carboxylic acid metabolite compared with III, rat” value in [5] was “comparable to those of III”. For the same compound, the “activity of metabolite, in words” value in data set [6] was “good activity”.

Take `O=C(Nc1nnn[nH]1)c1cnc2sc3c(n2c1=O)CCCC3` [sodium salt (trihydrate), sodium N-(5-tetrazolyl)-1-oxo-1H-cyclohexenothiazolo[3,2-a]pyrimidine-2-carboxamide trihydrate]: in data set [7], the hygroscopicity entry is on record as “non-hygroscopic” and the water solubility result was “good water solubility”.

For `CC1(C)CCc2c(sc3ncc(C(=O)Nc4nnn[nH]4)c(=O)n23)C1` [Amide I, R1R2 = CH2 C(CH3)2 CH2 CH2, N-(5-Tetrazolyl)-1-oxo-1H-7,7-dimethylcyclohexenothiazolo[3,2-a]pyrimidine-2-carboxamide], the inhibition in vivo at 30 mg/kg in [2] came to 27%; in data set [3], 38%.

Take `CC1(C)[C@@H](OC(=O)CCC(=O)O)CC[C@]2(C)[C@H]3C(=O)C=C4[C@@H]5C[C@@](C)(C(=O)O)CC[C@]5(C)CC[C@@]4(C)[C@]3(C)CC[C@@H]12` [carbenoxolone sodium, disodium salt of the hemisuccinate of glycyrrhetinic acid]: the “effect on gastric ulcers” value in [1] was “prevent formation of and to accelerate healing of gastric ulcers”.

With `O=C(Nc1nnn[nH]1)c1cnc2sc3c(n2c1=O)CCCCC3` [Amide I, R1R2 = (CH2)5, N-(5-tetrazolyl)-1-oxo-1H-cycloheptenothiazolo[3,2-a]pyrimidine-2-carboxamide], the “Oral Activity (% of Protection) … IgG 10 mg./kg.” value in [2] was determined as 38%. Further, the “Oral Activity (% of Protection) … IgE 10 mg./kg.” value in [3] stood at 25%.

On to `O=C(O)c1cc(=O)c2c(OCC(O)COc3cccc4oc(C(=O)O)cc(=O)c34)cccc2o1` [Intal, 1,3-bis(2-carboxycromon-5-yloxy)-2-hydroxy-propane], for which, in data set [8] (in vivo), the bronchodilator activity entry is given as “not a bronchodilator” and the “release of mediators of anaphylaxis” value was “inhibition of release of mediators of anaphylaxis”. Further, in data set [8] (oral route), the “oral activity/efficacy of Intal” value is “lacks efficacy by the oral route; also recorded: not active by the oral route; also recorded: lack of oral efficacy”. Besides, it took a dose of 0.014 mg/kg to reach the 50% effect level in [9] (ED50).

Take `CC(C)(C)c1csc2ncc(C(=O)Nc3nnn[nH]3)c(=O)n12` [Amide I, R1 = H, R2 = C(CH3)3, N-(5-tetrazolyl)-1-oxo-1H-7-(2-methyl-2-propyl)thiazolo[3,2-a]pyrimidine-2-carboxamide]: the “Oral Activity (% of Protection) … IgG 10 mg./kg.” value in data set [2] was 20%. For the same compound, in data set [3], the “Oral Activity (% of Protection) … IgE 10 mg./kg.” value was found to be 37%.
